Source: US10723741B1, “DNA polymerase IIIC inhibitors and use thereof” (Acurx Pharmaceuticals, LLC, priority 2018, dated 2020)
≈ marks a conversion by molar mass, not a printed value. Where a name gives a salt, the structure may show the parent alone. Read-outs that look alike come from different tables or passages of the source.

Columns and labels:
Assay type in all cases: cell-based
[1] = test system: Staphylococcus aureus ATCC 29213 (MSSA); assay: Broth microdilution MIC, S. aureus ATCC 29213 (MSSA); conditions: read-out: MIC S. aureus ATCC 29213 (MSSA)
Method in brief: (§1)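 Two-fold dilutions from 64 to 0.0625 μg/ml final, 1% DMSO, were inoculated at ~5.0×10^5 cfu/ml in the strain's test medium and kept 20 h at 37 °C in ambient atmosphere. Colonies were grown on MHA, with S. pneumoniae on blood agar under 5% CO2.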

[2] = test system: Enterococcus faecalis ATCC 29212; assay: Broth microdilution MIC, E. faecalis ATCC 29212; conditions: read-out: MIC E. faecalis ATCC 29212
Method in brief: as §1

[3] = test system: Enterococcus faecium ATCC 700221 (VRE); assay: Broth microdilution MIC, E. faecium ATCC 700221 (VRE); parameters: MIC E. faecium ATCC 700221 (VRE): unit: ug/mL; conditions: broth microdilution, 37° C., 20 hours; for MIC: Enterococcus faecium, read-out: MIC E. faecium ATCC 700221 (VRE)
Method in brief: as §1

[4] = test system: Bacillus subtilis ATCC 6633; assay: Broth microdilution MIC, B. subtilis ATCC 6633; conditions: read-out: MIC B. subtilis ATCC 6633
Method in brief: as §1

[5] = test system: Streptococcus pneumoniae ATCC 49619; assay: Broth microdilution MIC, S. pneumoniae ATCC 49619; conditions: read-out: MIC S. pneumoniae ATCC 49619
Method in brief: as §1

[6] = test system: Staphylococcus aureus NRS384 (MRSA); assay: Broth microdilution MIC, S. aureus NRS384 (MRSA); parameters: MIC NRS 384 (MRSA): unit not given here; conditions: broth microdilution, 37° C., 20 hours; for MIC: Staphylococcus aureus, read-out: MIC NRS 384 (MRSA)
Method in brief: as §1

[7] = test system: Escherichia coli ATCC 25922; assay: Broth microdilution MIC, E. coli ATCC 25922 (MHIIB w & w/o 4 mM EDTA); conditions: for MIC: Escherichia coli, read-out: MIC E. coli ATCC 25922; for MIC E. coli ATCC 25922 + 4 mM EDTA: with 4 mM EDTA
Method in brief: as §1

[8] = broth microdilution, 37° C., 20 hours
[9] = ATCC29212, broth microdilution, 37° C., 20 hours
[10] = ATCC6633, broth microdilution, 37° C., 20 hours
[11] = ATCC49619, broth microdilution, 37° C., 20 hours
[12] = ATCC25922, without EDTA, broth microdilution, 37° C., 20 hours

Row | SMILES | MIC [1, 8] | MIC [2, 9] | MIC E. faecium ATCC 700221 (VRE) [3] | MIC [4, 10] | MIC [5, 11] | MIC NRS 384 (MRSA) [6] | MIC [7, 12] | MIC E. coli ATCC 25922 + 4 mM EDTA [7, 8] | MIC [3] | MIC [6] | MIC ([6]; S. aureus NRS 384) | MIC ([1]; 20 h) | MIC ([2]; ATCC29212, 20 h) | MIC ([4]; ATCC6633, 20 h) | MIC ([5]; ATCC49619, 20 h) | MIC ([7]; ATCC25922, 20 h)
1 | Cl.O=c1[nH]c(NCc2ccc(Cl)c(Cl)c2)nc2cnn(Cn3cncn3)c12 [Compound 101, 1-((1H-1,2,4-triazol-1-yl)methyl)-5-((3,4-dichlorobenzyl)amino)-1H-pyrazolo[4,3-d]pyrimidin-7(6H)-one hydrochloride] | 4 µg/mL | 4 µg/mL | 2/4 | 2 µg/mL | 4 µg/mL | 8/8 | > 64 µg/mL | 64 µg/mL |  |  |  |  |  |  |  | 
2 | COCC(COC)n1ncc2nc(NCc3ccc(Cl)c(Cl)c3)[nH]c(=O)c21 [Compound 106, 5-((3,4-Dichlorobenzyl)amino)-1-(1,3-dimethoxypropan-2-yl)-1H-pyrazolo[4,3-d]pyrimidin-7(6H)-one] | 64 µg/mL (≈ 155 µM) | > 64 µg/mL |  | 32 µg/mL (≈ 77.6 µM) | 32 µg/mL (≈ 77.6 µM) |  | > 64 µg/mL | >64 µg/mL | 32 µg/mL (≈ 77.6 µM) | 32 µg/mL (≈ 77.6 µM) |  |  |  |  |  | 
3 | O=C(O)C(CCCn1ncc2nc(NCc3ccc(Cl)c(Cl)c3)[nH]c(=O)c21)c1ccccc1 (stereo not shown) [Compound 201, 5-(5-((3,4-dichlorobenzyl)amino)-7-oxo-6,7-dihydro-1H-pyrazolo[4,3-d]pyrimidin-1-yl)-2-phenylpentanoic acid] | 32 µg/mL (≈ 65.8 µM) | 32 µg/mL (≈ 65.8 µM) |  | 64 µg/mL (≈ 132 µM) | 16 µg/mL (≈ 32.9 µM) |  | > 64 µg/mL | >64. ug/ml | 16 µg/mL (≈ 32.9 µM) | 32 µg/mL (≈ 65.8 µM) |  |  |  |  |  | 
4 | Cl.O=c1[nH]c(NCc2ccc(Cl)c(Cl)c2)nc2cnn(CCOCc3cccnc3)c12 [Compound 181, 5-((3,4-Dichlorobenzyl)amino)-1-(2-(pyridin-3-ylmethoxy)ethyl)-1H-pyrazolo[4,3-d]pyrimidin-7(6H)-one hydrochloride] | 4 µg/mL | 8 µg/mL | 4/1 | 1 µg/mL | 4 µg/mL | 4/2 | > 64 µg/mL | >64. ug/ml |  |  |  |  |  |  |  | 
5 | O=c1[nH]c(NCc2ccc(Cl)c(Cl)c2)nc2cnn(CCOCCOP(=O)(O)O)c12 [Compound 296, 2-(2-(5-((3,4-dichlorobenzyl)amino)-7-oxo-6,7-dihydro-1H-pyrazolo[4,3-d]pyrimidin-1-yl)ethoxy)ethyl dihydrogen phosphate] | > 64 µg/mL | > 64 µg/mL |  | 32 µg/mL | 8 µg/mL |  | > 64 µg/mL | >64 µg/mL | 64 µg/mL |  | > 64 µg/mL |  |  |  |  | 
6 | Cl.O=c1[nH]c(NCc2ccc(Cl)c(Cl)c2)nc2cnn(CCN3CCC(O)CC3)c12 [Compound 65, 5-((3,4-Dichlorobenzyl)amino)-1-(2-(4-hydroxypiperidin-1-yl)ethyl)-1H-pyrazolo[4,3-d]pyrimidin-7(6H)-one hydrochloride] | 16 µg/mL | 8 µg/mL |  | 4 µg/mL | 4 µg/mL |  | > 64 µg/mL | 64 µg/mL | 8 µg/mL | 16 µg/mL |  |  |  |  |  | 
7 | CN1CC2CC1CN2CCn1ncc2nc(NCc3ccc(Cl)c(Cl)c3)[nH]c(=O)c21.Cl.Cl (stereo not shown) [Compound 69, 5-((3,4-Dichlorobenzyl)amino)-1-(2-(5-methyl-2,5-diazabicyclo[2.2.1]heptan-2-yl)ethyl)-1H-pyrazolo[4,3-d]pyrimidin-7(6H)-one dihydrochloride] | 32 µg/mL | 32 µg/mL |  | 4 µg/mL | 8 µg/mL |  | > 64 µg/mL | >64 µg/mL | > 64 µg/mL | 64 µg/mL |  |  |  |  |  | 
8 | O=c1[nH]c(NCc2ccc(Cl)c(Cl)c2)nc2cnn(CC3CCCN3c3ccccn3)c12 (stereo not shown) [Compound 182, 5-((3,4-dichlorobenzyl)amino)-1-((1-(pyridin-2-yl)pyrrolidin-2-yl)methyl)-1H-pyrazolo[4,3-d]pyrimidin-7(6H)-one dihydrochloride] |  |  | 4/2 |  |  | 4/8 |  | >64 µg/mL |  |  |  | 4 µg/mL | 8 µg/mL | 2 µg/mL | 8 µg/mL | > 64 µg/mL
9 | O=c1[nH]c(NCc2ccc(F)c(F)c2)nc2c(F)nn(CC3CCO3)c12 (stereo not shown) [Compound 315, 5-[(3,4-difluorophenyl)methylamino]-3-fluoro-1-(oxetan-2-ylmethyl)-6H-pyrazolo[4,3-d]pyrimidin-7-one] | 4 µg/mL (≈ 10.9 µM) | 8 µg/mL (≈ 21.9 µM) |  | 1 µg/mL (≈ 2.74 µM) | 2 µg/mL (≈ 5.47 µM) |  | > 64 µg/mL | >64 µg/mL | 2 µg/mL (≈ 5.47 µM) |  | 4 µg/mL (≈ 10.9 µM) |  |  |  |  | 
10 | Cc1cccnc1C(=O)N1CCC(n2ncc3nc(NCc4ccc(Cl)c(Cl)c4)[nH]c(=O)c32)CC1.Cl [Compound 262, 5-((3,4-Dichlorobenzyl)amino)-1-(1-(3-methylpicolinoyl)piperidin-4-yl)-1H-pyrazolo[4,3-d]pyrimidin-7(6H)-one hydrochloride] | 4 µg/mL | 4 µg/mL |  | 1 µg/mL | 4 µg/mL |  | > 64 µg/mL | >64 µg/mL | 2 µg/mL | 4 µg/mL |  |  |  |  |  | 
11 | Cn1ncc2nc(Nc3ccccc3)[nH]c(=O)c21 [Compound 10, 1-Methyl-5-(phenylamino)-1H-pyrazolo[4,3-d]pyrimidin-7(6H)-one] | > 64 µg/mL | > 64 µg/mL |  | > 64 µg/mL | > 64 µg/mL |  | > 64 µg/mL | >64 µg/mL | > 64 µg/mL | > 64 µg/mL |  |  |  |  |  | 

More lines, main results first:

Row | MIC [1, 8] | MIC [2, 9] | MIC E. faecium ATCC 700221 (VRE) [3] | MIC [4, 10] | MIC [5, 11] | MIC NRS 384 (MRSA) [6] | MIC [7, 12] | MIC E. coli ATCC 25922 + 4 mM EDTA [7, 8] | MIC [3] | MIC [6] | MIC ([6]; S. aureus NRS 384) | SMILES | MIC ([1]; 20 h) | MIC ([2]; ATCC29212, 20 h) | MIC ([4]; ATCC6633, 20 h) | MIC ([5]; ATCC49619, 20 h) | MIC ([7]; ATCC25922, 20 h)
12 | 4 µg/mL (≈ 10.1 µM) | 4 µg/mL (≈ 10.1 µM) | 2/4 | 1 µg/mL (≈ 2.54 µM) | 4 µg/mL (≈ 10.1 µM) | 4/4 | > 64 µg/mL | >64 µg/mL |  |  |  | O=c1[nH]c(NCc2ccc(Cl)c(Cl)c2)nc2cnn(CC3CCCO3)c12 (stereo not shown) [Compound 102, 5-((3,4-Dichlorobenzyl)amino)-1-((tetrahydrofuran-2-yl)methyl)-1H-pyrazolo[4,3-d]pyrimidin-7(6H)-one] |  |  |  |  | 
13 | 2 µg/mL (≈ 5.07 µM) | 4 µg/mL (≈ 10.1 µM) |  | 1 µg/mL (≈ 2.54 µM) | 4 µg/mL (≈ 10.1 µM) |  | > 64 µg/mL | >64 µg/mL | 2 µg/mL (≈ 5.07 µM) | 2 µg/mL (≈ 5.07 µM) |  | O=c1[nH]c(NCc2ccc(Cl)c(Cl)c2)nc2cnn(CC3CCOC3)c12 (stereo not shown) [Compound 120, 5-((3,4-Dichlorobenzyl)amino)-1-((tetrahydrofuran-3-yl)methyl)-1H-pyrazolo[4,3-d]pyrimidin-7(6H)-one] |  |  |  |  | 
14 | > 64 µg/mL | > 64 µg/mL |  | 8 µg/mL (≈ 22.7 µM) | 16 µg/mL (≈ 45.4 µM) |  | > 64 µg/mL | >64 µg/mL | 16 µg/mL (≈ 45.4 µM) | > 64 µg/mL |  | CC(C)n1cc2nc(NCc3ccc(Cl)c(Cl)c3)[nH]c(=O)c2n1 [Compound 132, 5-((3,4-Dichlorobenzyl)amino)-2-isopropyl-2H-pyrazolo[4,3-d]pyrimidin-7(6H)-one] |  |  |  |  | 
15 | 4 µg/mL | 8 µg/mL | 2/2 | 1 µg/mL | 8 µg/mL | 4/4 | > 64 µg/mL | >64 µg/mL |  |  |  | Cl.O=c1[nH]c(NCc2ccc(Cl)c(Cl)c2)nc2cnn(Cc3cccnc3)c12 [Compound 113, 5-[(3,4-Dichlorophenyl)methylamino]-1-(3-pyridylmethyl)-6H-pyrazolo[4,3-d]pyrimidin-7-one] |  |  |  |  | 
16 | 4 µg/mL (≈ 10.2 µM) | 16 µg/mL (≈ 40.9 µM) |  | 2 µg/mL (≈ 5.11 µM) | 8 µg/mL (≈ 20.4 µM) |  | > 64 µg/mL | >64 µg/mL | 2 µg/mL (≈ 5.11 µM) | 4 µg/mL (≈ 10.2 µM) |  | O=c1[nH]c(NCc2ccc(Cl)c(Cl)c2)nc2cnn(Cc3ncco3)c12 [Compound 144, 5-((3,4-Dichlorobenzyl)amino)-1-(oxazol-2-ylmethyl)-1H-pyrazolo[4,3-d]pyrimidin-7(6H)-one] |  |  |  |  | 
17 | 8 µg/mL (≈ 24.4 µM) | 16 µg/mL (≈ 48.8 µM) |  | 4 µg/mL (≈ 12.2 µM) | 32 µg/mL (≈ 97.5 µM) |  | > 64 µg/mL | >64 µg/mL | 4 µg/mL (≈ 12.2 µM) | 8 µg/mL (≈ 24.4 µM) |  | O=c1[nH]c(NCc2ccc(Cl)c(Cl)c2)nc2c(F)n[nH]c12 [Compound 54, 5-[(3,4-Dichlorophenyl)methylamino]-3-fluoro-1,6-dihydropyrazolo[4,3-d]pyrimidin-7-one] |  |  |  |  | 
